What was measured:
[1] = molecular target: T1, Cholesteryl ester transfer protein (Homo sapiens, UniProt P11597); assay: Inhibition of CETP
T1 sequence (P11597 whole entry): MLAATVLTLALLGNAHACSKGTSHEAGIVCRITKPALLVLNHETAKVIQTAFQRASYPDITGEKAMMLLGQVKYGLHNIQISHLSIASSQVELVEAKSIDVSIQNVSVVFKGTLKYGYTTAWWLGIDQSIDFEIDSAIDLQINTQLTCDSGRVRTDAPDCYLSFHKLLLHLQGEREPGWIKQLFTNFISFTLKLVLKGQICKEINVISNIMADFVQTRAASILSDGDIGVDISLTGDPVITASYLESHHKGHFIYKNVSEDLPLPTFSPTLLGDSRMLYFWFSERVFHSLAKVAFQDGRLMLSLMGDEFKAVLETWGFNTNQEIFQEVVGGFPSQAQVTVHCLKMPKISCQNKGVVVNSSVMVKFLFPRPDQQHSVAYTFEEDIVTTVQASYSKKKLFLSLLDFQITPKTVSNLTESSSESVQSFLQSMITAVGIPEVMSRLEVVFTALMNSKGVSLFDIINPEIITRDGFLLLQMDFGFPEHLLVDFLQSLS

[2] = molecular target: Voltage-gated inwardly rectifying potassium channel KCNH2 (Homo sapiens, UniProt Q12809); assay: Displacement of [35S]MK499 from human ERG expressed in HEK cells; type: cell-based, HEK293
Voltage-gated inwardly rectifying potassium channel KCNH2, sequence (Q12809 whole entry): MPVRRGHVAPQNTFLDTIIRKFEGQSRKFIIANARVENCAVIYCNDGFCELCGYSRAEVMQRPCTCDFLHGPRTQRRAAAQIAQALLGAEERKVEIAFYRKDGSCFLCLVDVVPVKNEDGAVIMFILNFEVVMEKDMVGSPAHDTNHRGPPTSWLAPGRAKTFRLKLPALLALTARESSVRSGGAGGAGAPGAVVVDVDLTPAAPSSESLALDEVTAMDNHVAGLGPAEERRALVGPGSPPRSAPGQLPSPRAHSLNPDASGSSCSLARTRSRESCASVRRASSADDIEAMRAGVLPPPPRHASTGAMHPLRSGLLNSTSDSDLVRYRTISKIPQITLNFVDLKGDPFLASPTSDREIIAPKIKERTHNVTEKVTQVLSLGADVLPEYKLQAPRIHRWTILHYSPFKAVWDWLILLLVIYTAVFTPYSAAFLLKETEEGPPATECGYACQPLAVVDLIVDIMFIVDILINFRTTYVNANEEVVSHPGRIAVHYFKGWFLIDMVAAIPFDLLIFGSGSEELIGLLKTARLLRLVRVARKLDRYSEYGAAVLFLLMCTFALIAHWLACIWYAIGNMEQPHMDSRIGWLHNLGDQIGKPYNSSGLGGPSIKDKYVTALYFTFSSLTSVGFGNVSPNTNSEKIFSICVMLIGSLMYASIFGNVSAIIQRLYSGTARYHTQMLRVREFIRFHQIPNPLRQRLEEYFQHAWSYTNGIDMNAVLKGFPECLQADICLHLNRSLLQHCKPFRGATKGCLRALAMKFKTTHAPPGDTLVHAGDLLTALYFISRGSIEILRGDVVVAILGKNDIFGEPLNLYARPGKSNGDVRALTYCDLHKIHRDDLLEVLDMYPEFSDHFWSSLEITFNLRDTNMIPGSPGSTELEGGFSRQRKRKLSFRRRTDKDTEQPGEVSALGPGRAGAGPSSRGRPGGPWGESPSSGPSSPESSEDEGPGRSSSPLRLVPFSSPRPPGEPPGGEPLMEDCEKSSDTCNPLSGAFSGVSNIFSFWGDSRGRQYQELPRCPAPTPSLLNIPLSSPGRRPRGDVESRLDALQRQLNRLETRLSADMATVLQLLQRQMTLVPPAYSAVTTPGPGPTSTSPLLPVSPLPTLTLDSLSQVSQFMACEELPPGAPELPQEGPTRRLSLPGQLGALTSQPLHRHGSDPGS

Mus musculus = assay: Increase of HDL cholesterol level in transgenic mouse model at 10 mg/kg; type: functional
[3] = Lipophilicity, log D of the compound at pH 7.3 by HPLC; type: physicochemical; details: buffer

Compound	IC50 [1] [µM]	logD [3]	IC50 [2] [µM]	Activity (Mus musculus) [mg/dL]
CC(C)Oc1ccc(F)cc1-c1ccc(N2C[C@H](CNC(=O)c3ccc(-c4nc5cc(C#N)cc(C(C)C)c5o4)cc3)OC2=O)nc1	0.154	–	> 30	–
CC(C)c1cc(C#N)cc2nc(-c3ccc(C(=O)NCC4CN(c5ccc(-c6ccccc6C#N)cn5)C(=O)O4)cc3)oc12 (racemic)	0.829	5.1	1.19	–
CC(C)c1cc(C#N)cc2nc(-c3ccc(C(=O)NC[C@H]4CC[C@@H](c5ccc(C(F)(F)F)cc5)CC4)cc3)oc12	0.134	–	> 30	–
CC(C)c1cc(C#N)cc2nc(-c3ccc(C(=O)NCC4CN(c5ccc(Cl)cn5)C(=O)O4)cc3)oc12 (racemic)	19.2	5.8	–	–
Cc1ccc(OC(C)C)c(-c2ccc(N3CC(CNC(=O)c4ccc(-c5nc6cc(C#N)cc(C(C)C)c6o5)cc4)OC3=O)nc2)c1 (racemic)	0.171	6.9	–	–
Cc1cccc([C@H]2CC[C@H](CNC(=O)c3ccc(-c4nc5cc(C#N)cc(C(C)C)c5o4)cc3)CC2)c1	0.133	–	–	–
CC(C)c1cc(C#N)cc2nc(-c3ccc(C(=O)NC[C@H]4CN(c5ccc(-c6ccccc6OC(F)(F)F)cn5)C(=O)O4)cc3)oc12	0.14	–	3.58	–
CC(C)c1cc(C#N)cc2nc(-c3ccc(C(=O)NCC4CN(c5ccc(-c6ccccc6C(N)=O)cn5)C(=O)O4)cc3)oc12 (racemic)	–	4.8	> 30	–
CC(C)Oc1ccc(F)cc1-c1ccc(N2CC(CNC(=O)c3ccc(-c4nc5cc(C#N)cc(C(C)C)c5o4)cc3)OC2=O)nc1 (racemic)	0.124	6.6	> 30	–
CC(C)c1cc(C#N)cc2nc(-c3ccc(C(=O)NC[C@H]4CC[C@@H](c5cccc(C(F)(F)F)c5)CC4)cc3)oc12	0.078	–	–	–
CC(C)c1cc(C#N)cc2nc(-c3ccc(C(=O)NC[C@H]4CC[C@H](c5cccc(C(F)(F)F)c5)CC4)cc3)oc12	0.1	–	–	–
Cc1ccc(-c2ccc(N3CC(CNC(=O)c4ccc(-c5nc6cc(C#N)cc(C(C)C)c6o5)cc4)OC3=O)nc2)s1 (racemic)	0.955	6.2	12.7	–
CC(C)c1cc(C#N)cc2nc(-c3ccc(C(=O)NC[C@H]4CC[C@H](c5cc(C(F)(F)F)cc(C(F)(F)F)c5)CC4)cc3)oc12	0.084	–	> 30	–
Cc1cccc([C@H]2CC[C@@H](CNC(=O)c3ccc(-c4nc5cc(C#N)cc(C(C)C)c5o4)cc3)CC2)c1	0.145	–	–	–
CC(C)c1cc(C#N)cc2nc(-c3ccc(C(=O)NC[C@H]4CC[C@@H](c5cc(C(F)(F)F)cc(C(F)(F)F)c5)CC4)cc3)oc12	1.04	–	> 30	–
CC(C)Oc1ccc(F)cc1-c1ccc(N2CCC(CNC(=O)c3ccc(-c4nc5cc(C#N)cc(C(C)C)c5o4)cc3)CC2)nc1	–	7.2	–	24
C=C(C)c1ccc(N2CC(CNC(=O)c3ccc(-c4nc5cc(C#N)cc(C(C)C)c5o4)cc3)OC2=O)nc1 (racemic)	2.34	5.4	> 30	–

Further lines, with some results ahead:

IC50 [1] [µM]	logD [3]	Compound	IC50 [2] [µM]	Activity (Mus musculus) [mg/dL]
0.022	–	CC(C)c1cc(C#N)cc2nc(-c3ccc(C(=O)NC[C@]4(C)CN(c5ccc(-c6ccccc6OC(F)(F)F)cn5)C(=O)O4)cc3)oc12	> 30	33
0.077	–	CC(C)c1cc(C#N)cc2nc(-c3ccc(C(=O)NC[C@H]4CC[C@H](c5ccc(Cl)cc5)CC4)cc3)oc12	> 30	–
0.018	–	CC(C)c1cc(C#N)cc2nc(-c3ccc(C(=O)NC[C@@]4(C)CN(c5ccc(-c6ccccc6OC(F)(F)F)cn5)C(=O)O4)cc3)oc12	> 30	27
0.037	–	CC(C)c1cc(C#N)cc2nc(-c3ccc(C(=O)NC[C@H]4CC[C@@H](c5ccc(C(C)(C)C)cc5)CC4)cc3)oc12	> 30	17
0.04	–	CC(C)c1cc(C#N)cc2nc(-c3ccc(C(=O)NC[C@H]4CC[C@H](c5ccc(C(F)(F)F)cc5)CC4)cc3)oc12	> 30	–
0.067	6.4	CC(C)c1cc(C#N)cc2nc(-c3ccc(C(=O)NCC4CN(c5ccc(-c6ccccc6OC(F)(F)F)cn5)C(=O)O4)cc3)oc12 (racemic)	> 30	–
0.066	–	CC(C)Oc1ccc(F)cc1-c1ccc(N2C[C@@H](CNC(=O)c3ccc(-c4nc5cc(C#N)cc(C(C)C)c5o4)cc3)OC2=O)nc1	> 30	24
0.046	–	CC(C)c1cc(C#N)cc2nc(-c3ccc(C(=O)NC[C@@H]4CN(c5ccc(-c6ccccc6OC(F)(F)F)cn5)C(=O)O4)cc3)oc12	> 30	19
0.038	–	CC(C)c1cc(C#N)cc2nc(-c3ccc(C(=O)NC[C@H]4CC[C@H](c5ccc(C(C)(C)C)cc5)CC4)cc3)oc12	> 30	18

Source: ChEMBL document CHEMBL1770083, “2-(4-Carbonylphenyl)benzoxazole inhibitors of CETP: attenuation of hERG binding and improved HDLc-raising efficacy” (Bioorg Med Chem Lett, 2011)
